Data published in patent US4966169A, “Process for manufacturing cigarettes” (priority 1988, dated 1990).
“Also recorded” adds a separate entry of the source. Like-named read-outs stand apart in the source and are kept apart here.

Columns and labels:
[1] = cited from earlier work
rats = details: cited from earlier work
bronchial epithelium [2] = test: Example 1: whole-body autoradiography, inhibition of localization of [14C] NNN radioactivity in bronchial epithelium; format: in vivo, C57BL/6J mice; details: for dose relation of reduction in photometric density: oral alcohols
Experimental: (§1) One hour later, the mice were anesthetized lightly with ether and frozen by immersion in dry ice/hexane. Twenty u-thick whole-body sagittal sections of the frozen mice were taken onto Scotch tape and were then processed for whole-body autoradiography by known methods. See W. Waddell et al, Drug Fate and Metabolism: Methods and Techniques, E.R. Garrett and J. L. Hirtz, Eds. […] Photometric density in areas of the developed autoradiographs was measured with an ADG Instruments photometer and a photocell with an aperture of three mm lying on the easel of a photographic enlarger. The X-ray film was placed in the enlarger and raised to produce a magnification of thirty-five times on the easel.
(§2) NNN. […] (Twenty minutes is the average time it takes for alcohols introduced by oral intubation into mice to reach the peak blood level.)
(§3) The number within each bar thereof represents the dose in g/kg of that alcohol which was administered orally twenty minutes before the [^14 C] NNN was given intravenously. The mice were frozen one hour after receiving the [^14 C] NNN. The means for each mouse were from fifteen measurements on random areas of that site (five absorbancies on each of three autoradiographs) after setting blood in each on zero. The control value is the mean from six mice; the n-butanol at 1 g/kg is from two mice; the other means are from one mouse.

[3] = test system: nitrosamines such as NNN and metabolites thereof in mammalian tissues; test: Inhibition of selective localization of nitrosamines (general statements); format: in vivo; details: qualitative statement
human exposure [4] = details: cited from earlier work
bronchial epithelium [5] = test: Examples 2 and 3: cyclohexanol vapor inhalation, whole-body autoradiography after [14C] NNN; format: in vivo, C57BL/6J mouse; details: inhaled 5 min
Experimental: The mouse was kept in the closed beaker for about five minutes as the bottom of the beaker was maintained at 50° C. in a water bath. […] Handbook of Chemistry and Physics (1979) at D-203 to D-217.
One hour later, the mouse was anesthetized lightly by ether and frozen by immersion in dry ice/hexane. […] Control experiments were conducted for comparison purposes and radioactivity was detected in the respiratory epithelium in the controls.
Example 2 was duplicated, except that the mouse was kept in the closed beaker for five minutes as the bottom of the beaker was maintained at 26° C. in a water bath. […] After injection as in Example 2, the mouse was processed in the same manner as in Example 2.

human exposure [6] = test: OSHA time weighted average (TWA) exposure limit; details: TWA 200 mg/m^3
From the text: On the other hand, the quantity of alcohol transferred and inhaled by the smoker must be at a safe amount and less than the maximum volumetric concentrations permitted for each alcohol by any applicable government regulation, such as in the United States those of the U.S. Occupational Safety and Health Administration (OSHA) Time Weighted Average (TWA). Other helpful guidelines are published by the Flavoring Extract Manufacturers' Association (Generally Regarded As Safe list), and the Hunter Committee from Great Britain. If a substance has not been evaluated in the literature, the toxicity of that substance (alcohol) should be evaluated before use. Compounds or alcohols herein are analyzed individually and the toxicity of a mixture of compounds is assumed to be the toxicity of the most toxic individual substance in the compound. It is expected that 1-1000 micrograms (and more particularly approximately 800 micrograms) of the blocking alcohol(s) would be needed on the rag tobacco for a cigarette containing 400-1200 milligrams (and more particularly approximately 800 milligrams) of tobacco. Yet another way of defining the quantity of alcohol is its concentration in air, which should be about 0.1% to 0.001% (see Example 3, supra). […]

[7] = test system: formation of nitrosamines on epithelial membranes; details: cited from earlier work
nitrosamine localization = test: Examples 4 and 5: intraperitoneal imidazole, whole-body autoradiography after [14C] NNN; format: in vivo, C57BL/6J mouse
Experimental: An adult male C57BL/6J mouse was injected intraperitoneally with 0.02 ml/g body weight of a solution of imidazole in water. The imidazole solution concentration was such that 0.05 g of imidazole was delivered per kg of body weight. […] See Example 1.
Example 4 was duplicated except that the adult mouse was injected intraperitoneally with 0.02 ml/g body weight of a solution of imidazole in water, wherein the solution concentration was such that 0.25 g of imidazole was delivered per kg of body weight.

[8] = test system: periportal and central areas of the liver; details: oral intubation 20 min before [14C] NNN
Experimental: as §1, §2, §3

salivary duct epithelium = details: oral intubation 20 min before [14C] NNN
Experimental: as §1, §2, §3

rodents = details: cited from earlier work; for carcinogenicity: rat, in vivo
tissue macromolecules = details: cited from earlier work; for metabolic activation: rats, hamsters and monkeys; for binding of metabolites to macromolecules: tracheobronchial and nasal mucosa, kidney, liver, sublingual and submaxillary glands, esophagus, melanin of the eye
tumor development = details: cited from earlier work
adult human = details: cited from earlier work

**Q.** For `CCC(CC)CO` [2-Ethyl butyl alcohol], which “Vapor Pressure” value ([1]; 20° C.) is on record?
**A.** 0.9 mmHg

**Q.** Which “Vapor Pressure” value ([1]; 30° C.) does the source give for Methyl cyclohexanol here?
**A.** 1.5 mmHg

**Q.** With `CCCCCCC(C)O` (stereo not drawn) [Capryl alcohol] as the compound, how does the “Vapor Pressure” value ([1]; 32.8° C.) read?
**A.** 1 mmHg

**Q.** What does the source list for `CCCCCCCCCCCCCCCCO` [Cetyl alcohol]?
**A.** Acute Oral LD50 (rats; rats, oral): 20000 mg/kg; Vapor Pressure ([1]; 122.7° C.): 1 mmHg

**Q.** Which “Vapor Pressure” value ([1]; 91° C.) does the source give for `CCCCCCCCCCCCO` [Lauryl alcohol] here?
**A.** 1 mmHg

**Q.** Which “Acute Oral LD50” value (rats; rats, oral) does the source give for `CC(C)CC(C)O` (stereo not drawn) [4-methyl-2-pentanol] here?
**A.** 2600 mg/kg

**Q.** What does the source list for `CCCCO` [n-butanol]?
**A.** Acute Oral LD50 (rats; rats, oral): 790 mg/kg; dose relation of reduction in photometric density (bronchial epithelium [2]): dose related

**Q.** Which “Vapor Pressure” value ([1]; 20° C.) does the source give for `CC(O)CCO` (stereo not drawn) [1,3 Butanediol] here?
**A.** .06 mmHg

**Q.** Which “Acute Oral LD50” value (rats; rat, in vivo, po) does the source give for `CC1=C(/C=C/C(C)=C/C=C/C(C)=C/CO)C(C)(C)CCC1` [retinol, reference compound] here?
**A.** 2000 mg/kg

**Q.** What does the source list for `CC(C)(C)O` [t-butanol]?
**A.** localization of [14C] NNN in bronchial epithelium (bronchial epithelium [2]; at the high dosage (1 g/kg), oral): almost completely abolished; inhibition ranking in bronchial epithelium (FIG. 1) (bronchial epithelium [2]; comparison of ethanol, n-butanol, t-butanol): greatest inhibition; dose relation of reduction in photometric density (bronchial epithelium [2]): dose related

**Q.** For `S=C=NCc1ccccc1` [benzylisothiocyanate], which “inhibition of nitrosamine localization” value [3] is on record?
**A.** found to delocalize nitrosamines

**Q.** Which “Acute Oral LD50” value (rats; rats, oral) does the source give for `OC1CCCCC1` [Cyclohexanol] here?
**A.** 2060 mg/kg

**Q.** What about the “Toxicity (TWA OSHA)” value (human exposure [4]; 8 h work day, 40 h work week) of the same compound?
**A.** 200 mg/m^3

**Q.** And the “atmosphere concentration considered safe by OSHA” value (human exposure [4]; eight continuous hours)?
**A.** two hundred

**Q.** And the “Vapor Pressure” value ([1]; 21° C.)?
**A.** 1 mmHg

**Q.** And the “radioactivity in bronchial epithelium” value (bronchial epithelium [5]; 26° C., 0.001% in air)?
**A.** No radioactivity was detected

**Q.** And the “radioactivity in bronchial epithelium” value (bronchial epithelium [5]; 50° C., 0.01% in air)?
**A.** No radioactivity was detected

**Q.** And the “concentration in cigarette smoke at TWA limit of OSHA” value (human exposure [6])?
**A.** 63 micrograms/cigarette

**Q.** For `O=C1O[C@H]([C@@H](O)CO)C(O)=C1O` [Vitamin C], which “formation of nitrosamines on epithelial membranes” value [7] is on record?
**A.** prevent the formation of nitrosamines

**Q.** With `c1c[nH]cn1` [imidazole] as the compound, how does the “nitrosamine delocalization relative to control mouse” value (nitrosamine localization; 0.05 g/kg intraperitoneal, 20 min before [14C] NNN) read?
**A.** Significant nitrosamine delocalization

**Q.** And the “nitrosamine delocalization relative to control mouse” value (nitrosamine localization; 0.25 g/kg intraperitoneal)?
**A.** significant delocalization of nitrosamine

**Q.** And the “inhibition of nitrosamine localization” value [3]?
**A.** found to delocalize nitrosamines

**Q.** Which results are given for `CCO` [ethanol]?
**A.** reduction of localization of radioactivity in periportal and central areas of the liver [8]: reduced; reduction of localization of radioactivity in salivary duct epithelium (salivary duct epithelium): reduced; Acute Oral LD50 (rats; rats, oral): 14000 mg/kg; dose relation of reduction in photometric density (bronchial epithelium [2]): dose related; reduction of localization of radioactivity in bronchial epithelium (bronchial epithelium [2]; oral intubation 20 min before [14C] NNN, ethanol 1 and 5 g/kg, butanols 0.2 and 1 g/kg): reduced

**Q.** With `O=NN1CCCC1c1cccnc1` (stereo not drawn) [NNN, Nnitrosonornicotine] as the compound, how does the tumor induction (rodents; F-344 rats, drinking water) read?
**A.** esophageal tumors have been induced

**Q.** What about the “sites of tumor formation” value (rodents; nasal cavity, salivary duct, esophagus, bronchial epithelium and liver) of the same compound?
**A.** induces tumor formation at five sites

**Q.** And the carcinogenicity (rodents)?
**A.** powerful environmental carcinogens

**Q.** What about the carcinogenesis (rodents; rodents, olfactory epithelium, lung, salivary glands) of the same compound?
**A.** induce carcinogenesis in the olfactory epithelium, lung, salivary glands

**Q.** What about the metabolism (tissue macromolecules; F-344 rat esophagus vs other tissues) of the same compound?
**A.** preferentially catalyzes hydroxylation at the a-carbon of NNN adjacent to the pyridine ring

**Q.** What about the metabolic activation (tissue macromolecules) of the same compound?
**A.** most likely starts with a-carbon hydroxylation

**Q.** What about the “binding of metabolites to macromolecules” value (tissue macromolecules) of the same compound?
**A.** bind to macromolecules

**Q.** And the “retention of radioactivity vs sites of tumor formation” value (tissue macromolecules; whole-body autoradiography, adult male C57BL/6J mice, [14C] NNN)?
**A.** striking correlation

**Q.** For `OCC=Cc1ccccc1` [Cinnamyl alcohol], which “Vapor Pressure” value ([1]; 72.6° C.) is on record?
**A.** 1 mmHg

**Q.** With Vitamin E as the compound, how does the “formation of nitrosamines on epithelial membranes” value [7] read?
**A.** prevent the formation of nitrosamines

**Q.** Which results are given for `CN(CCCC(=O)c1cccnc1)N=O` [NNK, 4(methylnitrosamino)-1-(3-pyridyl)-1-butanone]?
**A.** carcinogenicity (rodents): powerful environmental carcinogens; metabolic activation (tissue macromolecules): most likely starts with a-carbon hydroxylation; binding of metabolites to macromolecules (tissue macromolecules): bind to macromolecules

**Q.** For Vitamin A, which tumor development (tumor development) is on record?
**A.** inhibit tumor development

**Q.** With Dipropylene glycol monomethyl as the compound, how does the “Vapor Pressure” value ([1]; 20° C.) read?
**A.** .3 mmHg

**Q.** With `C[S+](C)[O-]` [dimethylsulfoxide (DMSO), dimethylsulfoxide] as the compound, how does the “inhibition of nitrosamine localization” value [3] read?
**A.** found to delocalize nitrosamines

**Q.** Which “Vapor Pressure” value ([1]; 59.5° C.) does the source give for `CCCCCCCCCO` [n-Nonyl alcohol] here?
**A.** 1 mmHg

**Q.** With `CCCCCCCCCCCCCCCCCCO` [Stearyl alcohol] as the compound, how does the “Vapor Pressure” value ([1]; 50° C.) read?
**A.** 1 mmHg

**Q.** For `CN1CCCC1c1cccnc1` (stereo not drawn) [nicotine], which “estimated acutely fatal oral dose” value (adult human) is on record?
**A.** one

**Q.** For `c1cn[nH]c1` [pyrazole], which “inhibition of nitrosamine localization” value [3] is on record?
**A.** found to delocalize nitrosamines

**Q.** With `CCCCCO` [n-amyl, n-amyl alcohol] as the compound, how does the “Acute Oral LD50” value (rats; rat, in vivo, po) read?
**A.** 3030 mg/kg

**Q.** With `CCCCCCCCCCO` [n-Decyl alcohol] as the compound, how does the “Vapor Pressure” value ([1]; 69.5° C.) read?
**A.** 1 mmHg

**Q.** Which “Vapor Pressure” value ([1]; 44° C.) does the source give for `CC(C)(O)C(C)(C)O` [Pinacol] here?
**A.** 1 mmHg

**Q.** Which results are given for `CC1CCC(C(C)C)C(O)C1` (stereo not drawn) [Menthol, reference compound]?
**A.** Acute Oral LD50 (rats; rat, in vivo, po): 3180 mg/kg; Vapor Pressure ([1]; 56° C.): 1 mmHg; inhibition of nitrosamine localization [3]: does not have the nitrosamine blocking effect; also recorded: does not inhibit nitrosamine localization
